Experiment: Hydrolysis of 500 mg (0.5 grams) of compound in 50 mL buffer (pH 9 or pH 7) at 50 or 100° C.
Assay type: physicochemical
Experimental: Into a clean and dry 1 liter, 3 necked round bottom flask equipped with a nitrogen inlet was added 15 grams of triclosan in 150 ml of ethyl acetate. 15 ml of pyridine was added to the reaction mixture and the reaction mixture was left for stifling at room temperature for 10 minutes. To this stirring solution was added dropwise 24 grams of stearic acid glycolic acid chloride 27 dissolved in 30 ml of ethyl acetate and the reaction was left for stirring at room temperature for twenty four hours following which the […] salt was filtered off and the ethyl acetate layer was washed with 5% solution of sodium bicarbonate followed by drying using sodium sulphate. Ethyl acetate was distilled off using high vacuum distillation to yield 22 grams of crude 28. […]

[1] = 500 mg in 50 mL pH 9 buffer, 100° C.
[2] = 0.5 grams in 50 mL pH 9 buffer, 50° C.

| SMILES | time to hydrolysis (Hydrolyzed in) [1] | time to hydrolysis (Hydrolyzed in) [2] | extent of hydrolysis by TLC in 48 hours (0.5 grams in 50 mL pH 7 buffer, 50° C.) | extent of hydrolysis by TLC in 48 hours (0.5 grams in 50 mL pH 7 buffer, 100° C.) | extent of hydrolysis in 53 hours (0.5 grams in 50 mL pH 7 buffer, 100° C., 53 hours) |
| --- | --- | --- | --- | --- | --- |
| CCCCCCCCCCCCCCCCCC(=O)OCC(=O)Oc1cc(Cl)ccc1Oc1ccc(Cl)cc1Cl [Example 28, Triclosan Glycolic Acid Stearate] | 27 h | – | – | – | – |
| O=C(COCCOc1ccc(OCCOCC(=O)Oc2cc(Cl)ccc2Oc2ccc(Cl)cc2Cl)cc1)Oc1cc(Cl)ccc1Oc1ccc(Cl)cc1Cl [Example 15, [2-(4-{2-[5-Chloro-2-(2,4-dichloro-phenoxy)-phenoxycarbonylmethoxy]-ethoxy}phenoxy)-ethoxy]-acetic acid 5-chloro-2-(2,4-dichloro-phenoxy)-phenyl ester] | – | Hydrolyzed in 150 hours | – | – | – |
| O=C(COc1ccc(OCC(=O)Oc2cc(Cl)ccc2Oc2ccc(Cl)cc2Cl)cc1)Oc1cc(Cl)ccc1Oc1ccc(Cl)cc1Cl [Compound 19, {4-[5-Chloro-2-(2,4-dichloro-phenoxy)-phenoxycarbonylmethoxy]-phenoxy}-acetic acid 5-chloro-2-(2,4-dichloro-phenoxy)-phenyl ester] | – | Hydrolyzed in 150 hours | By TLC it hydrolyzed around 5% in 48 hours | By TLC it hydrolyzed around 15% in 48 hours | – |
| O=C(COCC(=O)Oc1cc(Cl)ccc1Oc1ccc(Cl)cc1Cl)Oc1cc(Cl)ccc1Oc1ccc(Cl)cc1Cl [Example 20] | Hydrolyzed in 25 hours | Hydrolyzed in 102 hours | – | – | Hydrolyzed 50% only in 53 hours |

From patent US8399696B2, “Functionalized biodegradable triclosan monomers and oligomers for controlled release” (Bezwada Biomedical, LLC, priority 2007, dated 2013)
